Test results as given in patent publication US20170081383A1, “MELANOCORTIN ANALOGS HAVING ENHANCED ACTIVITY AND TRANSPORT” (Tensive Controls Inc., priority 2012, published 2017).
Entries after “also recorded” stand apart in the source; their conditions may differ. Positions of bridges follow the written chain, without caps; N, C: chain ends. Non-standard residues stand in square brackets, D forms with d. Residues, ends and D or L forms follow the SMILES beside them. No end group written: not given here. β2Val = β2-Val (beta2-Val), beta-amino acid; d2Nal = N[C@H](Cc1ccc2ccccc2c1)C(=O)O; β3hV = CC(C)[C@H](N)CC(=O)O; β3hP = O=C(O)C[C@@H]1CCCN1; Nle = CCCC[C@H](N)C(=O)O

Experiments:
[1] = system: urethane-anesthetized rats; assay: Cardiovascular activity of melanocortin peptides (MAP, heart rate, ECG); details: for Duration / Peak Heart Rate Response (BPM) / Peak MAP Response (Δ mm Hg): n = 5; for cardiovascular and behavioral side effects (in words): rats
Experimental: These studies were performed in urethane-anesthetized rats, since anesthesia is required for six-lead ECG monitoring. […] Initial selection of doses was guided by FDA exploratory IND studies with a recommendation for at least a 100-fold excess of the human dose.

[2] = system: LPS-induced cachexia in rats; assay: Lipopolysaccharide (LPS)-induced cachexia assay; assay type: in vivo, rat; details: for blood-brain barrier transport (concluded from peripheral vs ICV activity) / anti-cachectic activity after ICV (IVt) administration (in words): LPS model; for anti-cachectic activity after ICV (IVt) administration (in words): intracerebroventricular administration; for peripheral (IP) anti-cachexia activity, feeding (in words): peripheral / intraperitoneal administration after LPS
Experimental: The LPS model uses rats were maintained on a 12 h light/dark schedule with ad libitum access to food and water. Animals were handled daily for a minimum of three consecutive days to decrease non-specific handling stress. On the day of the experiment, individually housed animals received intraperitoneal injections of LPS dissolved in 0.5% low-endotoxin BSA, 0.9% saline or 0.5% BSA in 0.9% saline alone, and were returned to their home cage. The drug or control was administered (ICV, IP, or PO, depending on the type of study) 1-hour after LPS injection.
In the experiments described herein, a series of melanocortin receptor antagonist peptides were examined in a bacterial endotoxin inducing cachexia assay. For this assay, a rat is challenged with a single peripheral injection of lipopolysaccharide (LPS). LPS is a heat-stable lipo-polysaccharide, the major component of the outer membrane (capsule) of gram negative bacteria. In non-capsulated strains, it appears as a cell surface […]. LPS produces a strong immune response, including secretion of the proinflammatory cytokines Tumor Necrosis Factor α (TNFα) and interleukin-1 (IL-1). Proinflammatory cytokines are known factors that induce cachexia.
Rats are maintained on a 12-hour light/dark cycle. Animals are handled daily for a minimum of 5 consecutive days to acclimate them to the handling required for the experiment. […] On the day of the experiment, individually housed animals receive intraperitoneal (IP) injections of LPS dissolved in 0.5% low-endotoxin BSA, 0.9% saline or 0.5% BSA in 0.9% saline alone, and returned in their home cage. Melanocortin receptor antagonist peptides were administered (IP or by gavage, depending on the type of study) one hour after the LPS injection. The extent of cachexia is measured by the reduction in food intake, measured every two hours. The cachexia typically lasts only a single day. However, rats lose up to 5% of their body weight during a 12-hour light cycle, making up this loss plus food needed for normal growth during the 12-hour dark cycle. Thus, failure to eat appropriately during a single dark cycle is determinable from the animal's weight and any changes thereof.
A series of melanocortin receptor antagonist peptides were examined in a bacterial toxin inducing cachexia assay. In this assay, a rat was challenged with a single peripheral injection of lipopolysaccharide (LPS), a bacterial toxin that rapidly induces acute cachexia. The extent of cachexia was measured as a reduction in food intake, measured every two hours. The cachexia typically lasts only a single day.

Lewis sarcoma rat model = Lewis sarcoma rat model of cancer cachexia; assay type: in vivo
Experimental: This sarcoma is an aggressive form of cancer that produces significant cachexia. Popp et al., Cancer 49(6): 1212-1220 (1982). In the protocol, “treatment” began 8-days after tumor implantation, with a significant decrease in food intake from baseline. Body composition was determined by NMR prior to tumor implantation, and on the final day of the experiment after tumor resection, by ECHO MRI (NMR). Tumor implantation produces cachexia on or about the 6th day. Melanocortin drug therapy or saline was begun after day 8 and continued through day 12.
Prior to tumor implantation, both groups (drug or saline) had similar food intake (˜14 g/day). See FIGS. 2A and B. After tumor implantation, in saline-treated/tumor bearing controls, food intake decreased 35% to 9 g/day by day 8. FIGS. 3A-F. However, treatment with TCMCB01 reversed anorexia to a food intake similar to the control state.

For CCCC[C@H](NC(C)=O)C(=O)N[C@H]1CC(=O)NCCCC[C@@H](C(=O)O)NC(=O)[C@H](Cc2c[nH]c3ccccc23)NC(=O)[C@H](CCCN=C(N)N)NC(=O)[C@@H](Cc2ccccc2)NC(=O)[C@H](Cc2cnc[nH]2)NC1=O [PT-141, Ac-Nle-c[Asp-His-D-Phe-Arg-Trp-Lys]-COOH], the “Duration” value ([1]; 250 nmol) was 140 ± 53 min, the “Peak Heart Rate Response (BPM)” value ([1]; 250 nmol) was 44 ± 6 BPM and the “Peak MAP Response (Δ mm Hg)” value ([1]; 250 nmol) was 32 ± 6 mm Hg. The lethality ([1]; 900 nmol/kg IV, FIG. 1C) was “lethal dose”, the “MAP reached after dosing” value ([1]; 900 nmol/kg IV, baseline MAP 80 mmHg, then precipitously falling) was 140 mmHg and the “heart rate course after dosing” value ([1]; 900 nmol/kg IV, baseline heart rate 312) was “progressively fell”. For the same compound, the “ECG tracing (lead 2) finding” value ([1]; IV 600 nmol/kg, FIG. 1A-B) was “inverted P-wave”.

In the case of CCCC[C@H](NC(C)=O)C(=O)N[C@H]1CC(=O)NCCCC[C@@H](C(=O)N2CCC[C@@H]2C(=O)N[C@@H](C(N)=O)C(C)C)NC(=O)[C@H](Cc2c[nH]c3ccccc23)NC(=O)[C@H](CCCNC(=N)N)NC(=O)[C@@H](Cc2ccc3ccccc3c2)NC(=O)[C@@H]2CCCN2C1=O [TCMCB02, Ac-Nle-c[Asp-Pro-D-Nal(2′)-Arg-Trp-Lys]-D-Pro-D-Val-NH2] (Ac-[Nle]DP[d2Nal]RWK[dP][dV]-NH2; lactam 2-7 (inferred)), the “blood-brain barrier transport (concluded from peripheral vs ICV activity)” value [2] is reported as “only has blood-brain barrier transport” and the “cardiovascular and behavioral side effects (in words)” value [1] is reported as “no cardiovascular or dose-limiting behavioral side effects”.

“Ac-Nle-c[Asp-His-D-Nal(2′)-Arg-Trp-Lys]-D-Pro-D-Val-NH2 (Ac-[Nle]DH[d2Nal]RWK[dP][dV]-NH2; lactam 2-7; SMILES CCCC[C@H](NC(C)=O)C(=O)N[C@H]1CC(=O)NCCCC[C@@H](C(=O)N2CCC[C@@H]2C(=O)N[C@@H](C(N)=O)C(C)C)NC(=O)[C@H](Cc2c[nH]c3ccccc23)NC(=O)[C@H](CCCNC(=N)N)NC(=O)[C@@H](Cc2ccc3ccccc3c2)NC(=O)[C@H](Cc2c[nH]cn2)NC1=O) [TCMCB03]” was tested, and the “blood-brain barrier transport (concluded from peripheral vs ICV activity)” value [2] was “failed to cross the blood brain barrier; also recorded: less blood-brain barrier transport activity”, the “anti-cachectic activity after ICV (IVt) administration (in words)” value (from here on “anti-cachectic activity after ICV”) [2] was “enhanced anti-cachexia; also recorded: superior anti-cachexia activity following ICV administration” and the “peripheral (IP) anti-cachexia activity, feeding (in words)” value (“peripheral (IP) anti-cachexia activity” below) [2] was “did not possess as good peripheral”.

For “Ac-Nle-c[Asp-His-D-Nal(2′)-Arg-Trp-Lys]-NH2 [SHU9119]”, the “Peak Heart Rate Response (BPM)” value ([1]; 250 nmol) was 3 ± 14 BPM and the “Peak MAP Response (Δ mm Hg)” value ([1]; 250 nmol) was 16 ± 5 mm Hg.

For “Ac-Nle-c[Asp-Pro-D-Nal(2′)-Arg-Trp-Lys]-D-Thr-D-Pro-D-Thr (Ac-[Nle]DP[d2Nal]RWK[dT][dP][dT]; lactam 2-7) [TCMCB01]”, the “reversal of cachexia-anorexia (food intake)” value (Lewis sarcoma rat model; ICV, one time per day, 2 nmol, after day 8 through day 12) was “reversed the cachexia-anorexia of the tumor burden”, the “dose producing the feeding effect relative to that used with previous synthetic melanocortin antagonists” value (Lewis sarcoma rat model; Lewis model) was “one tenth” and the “body weight after tumor implantation” value (Lewis sarcoma rat model; drug treated group vs saline controls, FIG. 4) was “significantly greater than saline controls”. The tumor weight (Lewis sarcoma rat model; equivalent in saline-treated and drug-treated group (p=0.2), FIG. 5) was about 40 g, the “anti-cachectic response compared with AGRP and SHU9119” value (Lewis sarcoma rat model; food intake, Lewis sarcoma rats, FIG. 3) was “as potent as the natural melanocortin system inhibitor Agouti Related Protein (AGRP), and significantly more potent than SHU9119; also recorded: equivalent to AGRP” and the “anti-cachectic effect greater than AGRP” value (Lewis sarcoma rat model; related study (not shown), Lewis model) was about 20%. For the same compound, the “lean body mass (NMR after tumor excision)” value (Lewis sarcoma rat model; statistical significance only p=0.05, FIG. 6) was “increased lean body mass”, the “blood-brain barrier transport (concluded from peripheral vs ICV activity)” value [2] was “insufficient blood brain barrier-transport; also recorded: no blood-brain barrier transport” and the “anti-cachectic activity compared to the parent compound, PG932” value ([2]; Lewis sarcoma rat model and LPS model) was “enhanced anti-cachectic activity”. For the same compound, the “anti-cachectic activity after ICV” value [2] was “only produced an anti-cachexia effect when given by IVt administration”, the “peripheral (IP) anti-cachexia activity” value [2] was “did not have peripheral activity” and the “Duration” value ([1]; 600 nmol) was 0 min. The “Peak Heart Rate Response (BPM)” value ([1]; 600 nmol) was 0/0 BPM, the “Peak MAP Response (Δ mm Hg)” value ([1]; 600 nmol) was 0/0 mm Hg and the “cardiovascular and behavioral side effects (in words)” value [1] was “no cardiovascular or dose-limiting behavioral side effects; also recorded: little cardiovascular activity”.

In the case of “Ac-Nle-c[Asp-Pro-D-Nal(2′)-Arg-Trp-Lys]-D-Val-D-Pro-OH (Ac-[Nle]DP[d2Nal]RWK[dV][dP]-OH; lactam 2-7) [TCMCB07A]”, the “peripheral (IP) anti-cachexia activity” value [2] is reported as “equivalent stimulation of feeding”.

“Ac-Nle-c[Asp-Pro-D-Nal(2′)-Arg-Trp-Lys]-β^2-Val-β^3-Pro-NH2 (Ac-[Nle]DP[d2Nal]RWK[β2Val][β3hP]-NH2; lactam 2-7) [TCMCB08]” was tested, and the “blood-brain barrier transport (concluded from peripheral vs ICV activity)” value [2] was “good blood-brain barrier transport”, the “oral activity / gastrointestinal transport (in words)” value ([2]; gavage (intra-gastric) administration, LPS cachexia) was “not as much oral activity as TCMCB07; also recorded: no gastrointestinal transport” and the “peripheral (IP) anti-cachexia activity” value [2] was “has peripheral activity”.

For “Ac-Nle-c[Asp-Pro-D-Nal(2′)-Arg-Trp-Lys]-β^3-Pro-β^3-Pro-NH2 (Ac-[Nle]DP[d2Nal]RWK[β3hP][β3hP]-NH2; lactam 2-7; SMILES CCCC[C@H](NC(C)=O)C(=O)N[C@H]1CC(=O)NCCCC[C@@H](C(=O)N2CCC[C@H]2CC(=O)N2CCC[C@H]2CC(N)=O)NC(=O)[C@H](Cc2c[nH]c3ccccc23)NC(=O)[C@H](CCCNC(=N)N)NC(=O)[C@@H](Cc2ccc3ccccc3c2)NC(=O)[C@@H]2CCCN2C1=O) [TCMCB10]”, the “blood-brain barrier transport (concluded from peripheral vs ICV activity)” value [2] was “failure to cross the blood-brain barrier”, the “anti-cachectic activity after ICV” value [2] was “maintaining direct inhibitory effects” and the “peripheral (IP) anti-cachexia activity” value [2] was “no peripheral activity”.

“Ac-Nle-c[Asp-Pro-D-Nal(2′)-Arg-Trp-Lys]-β^3-Pro-β^3-Val-NH2 (Ac-[Nle]DP[d2Nal]RWK[β3hP][β3hV]-NH2; lactam 2-7) [TCMCB06]” was tested, and the “food intake, 24 hours after LPS challenge” value ([2]; 0.2 mg/kg intraperitoneally, FIG. 8A) was “ate significantly less food than the other drug candidates”, the “body weight (percent of pre-LPS baseline), 24 hours after LPS challenge” value ([2]; 0.2 mg/kg intraperitoneally, FIG. 8B) was “no weight gain” and the “molar activity relative to TCMCB02” value ([2]; ICV administration, LPS-induced cachexia) was 10 fold. For the same compound, the “anti-cachectic activity after ICV” value [2] was “molar activity equivalent to TCMCB02” and the “peripheral (IP) anti-cachexia activity” value [2] was “only TCMCB05 (β^3-Pro-β^2-Val) had IP anti-cachexia activity; also recorded: only TCMCB05 had peripheral anti-cachexia activity”.

With “Ac-Nle-c[Asp-Pro-D-Nal(2′)-Arg-Trp-Lys]-β^3-Val-β^3-Pro-NH2 (Ac-[Nle]DP[d2Nal]RWK[β3hV][β3hP]-NH2; lactam 2-7) [TCMCB09]” the “peripheral (IP) anti-cachexia activity” value [2] was “inactive peripherally”.

With “Ac-Nle-c[D-Asp-Pro-D-Nal(2′)-Arg-Trp-D-Lys]-D-Pro-D-Val-NH2 (Ac-[Nle][dD]P[d2Nal]RW[dK][dP][dV]-NH2; lactam 2-7) [TCMCB04]” the “blood-brain barrier transport (concluded from peripheral vs ICV activity)” value [2] was “eliminated blood brain barrier transport; also recorded: no transport across the blood-brain barrier”, the “anti-cachectic activity after ICV” value [2] was “superior anti-cachectic activity compared to the parent compound” and the “peripheral (IP) anti-cachexia activity” value [2] was “No difference was observed between the peptide and saline”.

“Ac-Ser-Tyr-Nle-Glu-His-D-Phe-Arg-Trp-Gly-Lys-Pro-Val-NH2 [MT-I]” was tested, and the “Duration” value ([1]; 250 nmol) was 0 min, the “Peak Heart Rate Response (BPM)” value ([1]; 250 nmol) was 0/0 BPM and the “Peak MAP Response (Δ mm Hg)” value ([1]; 250 nmol) was 0/0 mm Hg.
